target: GCN2 (Homo sapiens, UniProt Q9P2K8); experiment: GCN2 enzymatic endpoint assay: phosphorylation of GFP-eIF2α measured by TR-FRET (Lanthascreen); assay type: biochemical; conditions: GCN2 biochemical IC50; 4 nM GCN2, 2 μM ATP, 80 nM GFP-eIF2α, 90 min RT; read-out: GCN2 activity
In short: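 Endpoint GCN2 reaction with low ATP (2 μM) and 80 nM GFP-eIF2α, room temperature, 90 minutes. Detection mix with EDTA and Tb-labelled antibody; 520 nm/495 nm emission ratio reported.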

GCN2, sequence (Q9P2K8 whole entry): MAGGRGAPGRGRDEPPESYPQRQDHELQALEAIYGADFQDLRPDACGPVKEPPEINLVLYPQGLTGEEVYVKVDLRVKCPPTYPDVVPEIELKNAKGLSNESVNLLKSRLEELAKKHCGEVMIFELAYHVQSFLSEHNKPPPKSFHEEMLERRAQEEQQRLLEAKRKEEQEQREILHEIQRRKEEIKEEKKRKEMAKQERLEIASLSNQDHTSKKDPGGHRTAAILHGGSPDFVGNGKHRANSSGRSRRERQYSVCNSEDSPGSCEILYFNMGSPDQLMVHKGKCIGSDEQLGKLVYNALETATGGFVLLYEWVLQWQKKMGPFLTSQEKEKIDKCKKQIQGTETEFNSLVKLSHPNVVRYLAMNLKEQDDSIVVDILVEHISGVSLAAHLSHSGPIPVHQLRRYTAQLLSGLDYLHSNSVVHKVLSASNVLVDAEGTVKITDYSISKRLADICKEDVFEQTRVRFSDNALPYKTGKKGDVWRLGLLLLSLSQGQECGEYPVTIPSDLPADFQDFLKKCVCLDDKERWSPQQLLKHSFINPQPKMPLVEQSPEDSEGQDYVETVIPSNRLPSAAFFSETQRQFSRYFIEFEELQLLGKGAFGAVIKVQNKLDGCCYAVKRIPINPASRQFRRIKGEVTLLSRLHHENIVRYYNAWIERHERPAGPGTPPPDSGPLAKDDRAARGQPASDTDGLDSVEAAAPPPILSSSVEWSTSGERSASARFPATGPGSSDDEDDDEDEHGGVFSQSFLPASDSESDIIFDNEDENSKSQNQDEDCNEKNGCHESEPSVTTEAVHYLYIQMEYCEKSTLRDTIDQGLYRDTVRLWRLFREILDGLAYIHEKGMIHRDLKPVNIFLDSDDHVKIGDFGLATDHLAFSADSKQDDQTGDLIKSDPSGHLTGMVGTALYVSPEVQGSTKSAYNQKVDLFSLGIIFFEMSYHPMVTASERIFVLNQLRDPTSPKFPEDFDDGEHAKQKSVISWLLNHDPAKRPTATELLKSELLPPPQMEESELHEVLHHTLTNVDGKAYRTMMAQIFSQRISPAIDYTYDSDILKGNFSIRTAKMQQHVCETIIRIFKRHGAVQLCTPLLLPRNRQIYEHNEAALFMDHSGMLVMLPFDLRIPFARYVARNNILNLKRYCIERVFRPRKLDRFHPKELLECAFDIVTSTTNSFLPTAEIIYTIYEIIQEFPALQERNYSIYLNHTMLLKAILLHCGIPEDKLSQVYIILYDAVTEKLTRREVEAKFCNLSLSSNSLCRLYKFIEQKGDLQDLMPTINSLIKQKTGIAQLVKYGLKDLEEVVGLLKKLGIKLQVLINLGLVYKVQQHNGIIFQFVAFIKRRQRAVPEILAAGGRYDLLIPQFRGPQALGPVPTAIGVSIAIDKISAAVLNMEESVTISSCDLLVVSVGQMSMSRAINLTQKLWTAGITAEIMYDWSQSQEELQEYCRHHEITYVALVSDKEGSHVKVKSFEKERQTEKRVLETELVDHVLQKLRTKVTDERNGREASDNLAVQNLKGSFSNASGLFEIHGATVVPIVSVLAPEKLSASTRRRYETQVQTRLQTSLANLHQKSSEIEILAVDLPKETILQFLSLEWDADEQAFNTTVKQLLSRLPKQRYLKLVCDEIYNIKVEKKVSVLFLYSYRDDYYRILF

`CC[C@@H](N)c1cc(-n2nc(Br)c3cnc(N[C@@H]4CC[C@@](C)(C(=O)NC)C4)nc32)cc2nccnc12` [Example 66, (1R,3R)-3-((1-(8-((R)-1-aminopropyl)quinoxalin-6-yl)-3-bromo-1H-pyrazolo[3,4-d]pyrimidin-6-yl)amino)-N,1-dimethylcyclopentane-1-carboxamide] and `CNC(=O)[C@]1(C)CC[C@@H](Nc2ncc3c(Br)nn(-c4ccc5nnccc5c4)c3n2)C1` [Example 42, (1R,3R)-3-((3-bromo-1-(cinnolin-6-yl)-1H-pyrazolo[3,4-d]pyrimidin-6-yl)amino)-N,1-dimethylcyclopentane-1-carboxamide; 2,2,2-trifluoroacetic acid] cannot be ordered by IC50: less than 25 nM for the first, less than 25 nM for the second.

same assay, conditions: tested as described in Example 77; compound and/or hydrochloride, dihydrochloride or trifluoroacetic acid salt; read-out: IC 50 Activity

`CNC(=O)[C@]1(C)CCC(Nc2ncc3c(Br)nn(-c4cnc(-c5nnc(C)s5)c(Cl)c4)c3n2)C1` (stereo partly drawn) [(1R)-3-[[3-bromo-1-[5-chloro-6-(5-methyl-1,3,4-thiadiazol-2-yl)-3-pyridyl]pyrazolo [3,4-d]pyrimidin-6-yl]amino]-N,1-dimethyl-cyclopentanecarboxamide] and `CNC(=O)[C@]1(C)CCC(Nc2ncc3c(Br)nn(-c4ccc(C(N)=O)c(Cl)c4)c3n2)C1` (stereo partly drawn) [4-[3-bromo-6-[[(3R)-3-methyl-3-(methylcarbamoyl)cyclopentyl]amino]pyrazolo[3,4-d]pyrimidin-1-yl]-2-chloro-benzamide] fall in the same range of IC50: 25 to 200 nM for the first, 25 to 200 nM for the second.

`Cc1nnc(-c2ccc(-n3nc(Br)c4cnc(N[C@@H]5CCC[C@@H](P(C)(C)=O)C5)nc43)cc2)s1` [3-bromo-N-[(1R,3R)-3-dimethylphosphoryl-cyclohexyl]-1-[4-(5-methyl-1,3,4-thiadiazol-2-yl)phenyl]pyrazolo[3,4-d]pyrimidin-6-amine] and `Cc1nnc(-c2ccc(-n3nc(Br)c4cnc(NC5CC(P(C)(C)=O)C5)nc43)cc2)s1` (stereo not drawn) [3-bromo-N-(3-dimethylphosphorylcyclo-butyl)-1-[4-(5-methyl-1,3,4-thiadiazol-2-yl)phenyl]pyrazolo[3,4-d]pyrimidin-6-amine] fall in the same range of IC50: 25 to 200 nM for the first, 25 to 200 nM for the second.

`CNC(=O)[C@]1(C)CC[C@@H](Nc2ncc3c(Br)nn(-c4ccc5c(c4)SCC(=O)N5C)c3n2)C1` [(1R,3R)-3-[[3-bromo-1-(4-methyl-3-oxo-1,4-benzothiazin-7-yl)pyrazolo[3,4-d]pyrimidin-6-yl]amino]-N,1-dimethyl-cyclopentanecarboxamide] and `CCN1C(=O)COc2cc(-n3nc(Br)c4cnc(N[C@@H]5CC[C@@](C)(C(=O)NC)C5)nc43)ccc21` [(1R,3R)-3-[[3-bromo-1-(4-ethyl-3-oxo-1,4-benzoxazin-7-yl)pyrazolo[3,4-d]pyrimidin-6-yl]amino]-N,1-dimethyl-cyclopentane-carboxamide] fall in the same range of IC50: 25 to 200 nM for the first, 25 to 200 nM for the second.

`CNC(=O)[C@H]1CC[C@@H](Nc2ncc3c(Br)nn(-c4ccc5nc(OC)ccc5c4)c3n2)C1` [(1S,3R)-3-[[3-bromo-1-(2-methoxy-6-quinolyl)pyrazolo[3,4-d]pyrimidin-6-yl]amino]-N-methyl-cyclopentanecarboxamide] and `CNC(=O)[C@@H]1CC[C@@H](Nc2ncc3c(Br)nn(-c4cnc5ncccc5c4)c3n2)C1` [(1R,3R)-3-[[3-bromo-1-(1,8-naphthyridin-3-yl)pyrazolo[3,4-d]pyrimidin-6-yl]amino]-N-methyl-cyclopentanecarboxamide] fall in the same range of IC50: 25 to 200 nM for the first, 25 to 200 nM for the second.

`CNC(=O)[C@]1(C)CC[C@@H](Nc2ncc3c(Br)nn(-c4ccc5nc(N)nc(N)c5c4)c3n2)C1` [(1R,3R)-3-[[3-bromo-1-(2,4-diamino-quinazolin-6-yl)pyrazolo[3,4-d]pyrimidin-6-yl]amino]-N,1-dimethyl-cyclopentane-carboxamide; 2,2,2-trifluoroacetic acid] and `CNC(=O)[C@]1(C)CC[C@@H](Nc2ncc3c(Br)nn(-c4ccc5ncn(CCO)c(=O)c5c4)c3n2)C1` fall in the same range of IC50: 25 to 200 nM for the first, 25 to 200 nM for the second.

`Cc1nnc(-c2ccc(-n3nc(Br)c4cnc(N[C@@H]5CC[C@]6(CCNC6=O)C5)nc43)cc2)s1` and `Cc1nnc(-c2ccc(-n3nc(Br)c4cnc(N[C@@H]5CC[C@@](C)(N(C)C)C5)nc43)cc2)s1` fall in the same range of IC50: 25 to 200 nM for the first, 25 to 200 nM for the second.

First: CNC(=O)[C@]1(C)CC[C@@H](Nc2ncc3c(Br)nn(-c4cc(/C=C/P(C)(C)=O)c5ncccc5c4)c3n2)C1 [(1R,3R)-3-[[3-bromo-1-[8-[(E)-2-dimethylphosphorylvinyl]-6-quinolyl]pyrazolo[3,4-d]pyrimidin-6-yl]amino]-N,1-dimethyl-cyclopentanecarboxamide]
Second: COC1(C)CN(C(=O)[C@]2(C)CC[C@@H](Nc3ncc4c(Br)nn(-c5cc(F)c6ncccc6c5)c4n3)C2)C1 [[(1R,3R)-3-[[3-bromo-1-(8-fluoro-6-quinolyl)pyrazolo[3,4-d]pyrimidin-6-yl]amino]-1-methyl-cyclopentyl]-(3-methoxy-3-methyl-azetidin-1-yl)methanone]
The IC50 of the first is higher: 25 to 200 nM for the first, less than 25 nM for the second.

`Cc1nnc(-c2ccc(-n3nc(Br)c4cnc(N[C@@H]5CC[C@@](C)(C(=O)N6CCOCC6)C5)nc43)cc2)s1` [[(1R,3R)-3-[[3-bromo-1-[4-(5-methyl-1,3,4-thiadiazol-2-yl)phenyl]pyrazolo[3,4-d]pyrimidin-6-yl]amino]-1-methyl-cyclopentyl]-morpholino-methanone] and `Cc1nnc(-c2ccc(-n3nc(Br)c4cnc(N[C@@H]5CC[C@@](C)(C(=O)N6CCNC(=O)C6)C5)nc43)cc2)o1` [4-[(1R,3R)-3-[[3-bromo-1-[4-(5-methyl-1,3,4-oxadiazol-2-yl)phenyl]pyrazolo [3,4-d]pyrimidin-6-yl]amino]-1-methyl-cyclopentanecarbonyl]piperazin-2-one] fall in the same range of IC50: 25 to 200 nM for the first, 25 to 200 nM for the second.

`CCc1nnc(-c2ccc(-n3nc(Br)c4cnc(N[C@@H]5CC[C@@](C)(C(=O)NC)C5)nc43)cc2)s1` [(1R,3R)-3-[[3-bromo-1-[4-(5-ethyl-1,3,4-thiadiazol-2-yl)phenyl]pyrazolo[3,4-d]pyrimidin-6-yl]amino]-N,1-dimethyl-cyclopentanecarboxamide] and `CNC(=O)[C@]1(C)CC[C@@H](Nc2ncc3c(Br)nn(-c4ccc(-c5ccon5)cc4)c3n2)C1` [(1R,3R)-3-[[3-bromo-1-(4-isoxazol-3-ylphenyl)pyrazolo[3,4-d]pyrimidin-6-yl]amino]-N,1-dimethyl-cyclopentane-carboxamide] fall in the same range of IC50: 25 to 200 nM for the first, 25 to 200 nM for the second.

`CNC(=O)[C@]1(C)CC[C@@H](Nc2ncc3c(Br)nn(-c4ccc(-n5nccn5)cc4)c3n2)C1` [(1R,3R)-3-[[3-bromo-1-[4-(triazol-2-yl)phenyl]pyrazolo[3,4-d]pyrimidin-6-yl]amino]-N,1-dimethyl-cyclopentane-carboxamide] and `CNC(=O)[C@]1(C)CC[C@@H](Nc2ncc3c(Br)nn(-c4ccc(C#N)c(CCN)c4)c3n2)C1` [(1R,3R)-3-[[1-[3-(2-aminoethyl)-4-cyano-phenyl]-3-bromo-pyrazolo[3,4-d]pyrimidin-6-yl]amino]-N,1-dimethyl-cyclopentanecarboxamide] fall in the same range of IC50: 25 to 200 nM for the first, 25 to 200 nM for the second.

Compared with `CNC(=O)[C@@H]1CC[C@@H](Nc2ncc3c(Br)nn(-c4ccc(N5CCOCC5)c(C#N)c4)c3n2)C1` [(1R,3R)-3-((3-bromo-1-(3-cyano-4-morpholinophenyl)-1H-pyrazolo[3,4-d]pyrimidin-6-yl)amino)-N-methylcyclo-pentane-1-carboxamide], `O=C(NC1CCOCC1)[C@@H]1CC[C@@H](Nc2ncc3c(Br)nn(-c4ccc5ncccc5c4)c3n2)C1` [(1R,3R)-3-((3-bromo-1-(quinolin-6-yl)-1H-pyrazolo[3,4-d]pyrimidin-6-yl)amino)-N-(tetrahydro-2H-pyran-4-yl)cyclopentane-1-carboxamide] is lower in IC50: 500 to 1000 nM for the first, 25 to 200 nM for the second.

First: CNC(=O)C1(C)CC[C@@H](Nc2ncc3c(Br)nn(-c4cc(CO)cc(OC)c4)c3n2)C1 (stereo partly drawn) [(3R)-3-[[3-bromo-1-[3-(hydroxymethyl)-5-methoxy-phenyl]pyrazolo[3,4-d]pyrimidin-6-yl]amino]-N,1-dimethyl-cyclopentanecarboxamide]
Second: CNC(=O)[C@]1(C)CC[C@@H](Nc2ncc3c(Br)nn(-c4ccc(-c5ncco5)c(NC(=O)[C@@H]5CCNC5)c4)c3n2)C1 [(3R)-N-[5-[3-bromo-6-[[(1R,3R)-3-methyl-3-(methylcarbamoyl)cyclopentyl]amino]pyrazolo[3,4-d]pyrimidin-1-yl]-2-oxazol-2-yl-phenyl]pyrrolidine-3-carboxamide]
The IC50 of the first is higher: 25 to 200 nM for the first, less than 25 nM for the second.

Compared with `CN1CCN(C(=O)[C@@H]2CC[C@@H](Nc3ncc4c(Br)nn(-c5cnc6c(Cl)nccc6c5)c4n3)C2)CC1=O` [4-((1R,3R)-3-((3-bromo-1-(8-chloro-1,7-naphthyridin-3-yl)-1H-pyrazolo[3,4-d]pyrimidin-6-yl)amino)cyclopentane-1-carbonyl)-1-methylpiperazin-2-one], `O=C([C@@H]1CC[C@@H](Nc2ncc3c(Br)nn(-c4ccc5ncccc5c4)c3n2)C1)N1CCC(O)(C(F)(F)F)CC1` [((1R,3R)-3-((3-bromo-1-(quinolin-6-yl)-1H-pyrazolo[3,4-d]pyrimidin-6-yl)amino)cyclo-pentyl)(4-hydroxy-4-(trifluoromethyl)piperidin-1-yl)methanone] is higher in IC50: 25 to 200 nM for the first, 200 to 500 nM for the second. The first is the more potent here.

`CNC(=O)C1(CCC#N)CC[C@@H](Nc2ncc3c(Br)nn(-c4ccc(-c5nnc(C)s5)c(CCC#N)c4)c3n2)C1` (stereo partly drawn) [(3R)-3-[[3-bromo-1-[3-(2-cyanoethyl)-4-(5-methyl-1,3,4-thiadiazol-2-yl)phenyl]pyrazolo[3,4-d]pyrimidin-6-yl]amino]-1-(2-cyanoethyl)-N-methyl-cyclopentanecarboxamide] and `CNC(=O)[C@]1(C)CC[C@@H](Nc2ncc3c(Br)nn(-c4ccc(-c5nnc(C)s5)c(CCNCC(F)(F)F)c4)c3n2)C1` [(1R,3R)-3-[[3-bromo-1-[4-(5-methyl-1,3,4-thiadiazol-2-yl)-3-[2-(2,2,2-trifluoroethylamino)ethyl]phenyl]pyrazolo[3,4-d]pyrimidin-6-yl]amino]-N,1-dimethyl-cyclopentanecarboxamide] fall in the same range of IC50: 25 to 200 nM for the first, 25 to 200 nM for the second.
